Measured values from paper PMC8118275, “Allosteric MAPKAPK2 inhibitors improve plaque stability in advanced atherosclerosis” (PLoS ONE, 2021).

Assays:
[1] = tested on: MK2 activity (phospho-hsp25); test: Phospho-hsp25 (MK2 substrate) in liver and aortic root lesions of WD-fed Ldlr-/- mice; format: in vivo, mouse; details: ~30 mg/kg body weight per day in WD for 6 weeks
Description: Eight-week-old male Ldlr^-/- mice on the C57BL/6J background were purchased from Jackson Laboratory (stock # 002207) and fed a Western-type Diet (WD) for 16 weeks (Envigo, TD.88137; 21.2% fat, 0.2% cholesterol, 48.5% carbohydrate, and 17.3% protein by weight). Between weeks 10–16 of feeding, the WD of the experimental group was supplemented with TBX-1 or TBX-2 (600 mg/kg diet) to achieve a dose of ∼30 mg/kg body weight per day, whereas control mice remained on regular WD. The study included four separate cohorts, each comprised of 5 to 10 mice per group. The mice were randomly assigned to the different cohorts. Fasting blood glucose was measured in mice that were fasted for 5 h, with free access to water, using a glucose meter. […] Plasma insulin levels were measured in mice that were fasted for 5 h using an ultra-sensitive mouse insulin ELISA kit (Crystal Chem). […]
Total lesion area and necrotic area analysis were carried out on hematoxylin and eosin (H&E)-stained aortic root lesional cross sections as previously described. Briefly, total lesion area (from internal elastic lamina to the lumen) and acellular/anuclear areas (negative for hematoxylin-positive nuclei) per cross section were quantified by taking the average of 6 sections spaced 30 μm apart beginning at the base of the aortic root. […] Three slides, each with 2 sections, were assessed for each mouse. […]

WD-fed Ldlr-/- mice = test: Metabolism, plasma lipids, blood cells and tolerability in WD-fed Ldlr-/- mice with established atherosclerosis; format: in vivo, mouse; details: ~30 mg/kg body weight per day in WD for 6 weeks; for blood leukocyte (total white blood cell) count / blood monocyte count: versus control
Description: (§1) Eight-week-old male Ldlr^-/- mice on the C57BL/6J background were purchased from Jackson Laboratory (stock # 002207) and fed a Western-type Diet (WD) for 16 weeks (Envigo, TD.88137; 21.2% fat, 0.2% cholesterol, 48.5% carbohydrate, and 17.3% protein by weight). Between weeks 10–16 of feeding, the WD of the experimental group was supplemented with TBX-1 or TBX-2 (600 mg/kg diet) to achieve a dose of ∼30 mg/kg body weight per day, whereas control mice remained on regular WD. The study included four separate cohorts, each comprised of 5 to 10 mice per group. The mice were randomly assigned to the different cohorts. Fasting blood glucose was measured in mice that were fasted for 5 h, with free access to water, using a glucose meter. Insulin tolerance test was performed in 5 h-fasted mice by assaying blood glucose at various times after injection of insulin (0.7 IU/kg body wt i.p.). Plasma insulin levels were measured in mice that were fasted for 5 h using an ultra-sensitive mouse insulin ELISA kit (Crystal Chem). At the time of harvest, mice were euthanized using isoflurane, and blood was then removed by left ventricular puncture. Animals were provided with food and water ad libitum and housed in standard cages at 22°C in a 12-12h light-dark cycle in a barrier facility. The Columbia University IACUC provided ethical approval for these studies, and procedures were conducted in accordance with approved animal protocols.
Total plasma cholesterol and triglyceride levels were measured using commercially available kits (Wako Diagnostics). Plasma lipoproteins were analyzed by running 200 μl of pooled plasma onto a fast protein liquid chromatography system consisting of 2 Superose 6 columns connected in series (Amersham Pharmacia Biotech) as described previously.

[2] = Pharmacokinetics in CD-1 mice after single oral and intravenous administration; format: in vivo, mouse; details: for Clearance (Cl) / Cmax / F (oral bioavailability) / Half-life: CD-1 mice, TBX-1 1 mpk iv and 5 mpk po, TBX-2 1 mpk iv and 3 mpk po; for plasma half-life: mice, intravenous and oral administration
Description: The pharmacokinetics of the compounds were evaluated in CD-1 mice by single oral and intravenous routes of drug administration. The mice were fasted overnight before oral-gavage dosing of the compounds. The solutions used for PK studies were prepared by dissolving the compounds in 5% Solutol HS 15 in water. Following oral or intravenous administration of compounds, blood samples were collected at 0.08, 0.25, 0.5, 1, 2, 4, 6, 8, 12, and 24 h after dosing. Blood samples were centrifuged to separate plasma, and compound concentrations were determined by LC-MS. Dosing was well tolerated following oral and intravenous administration of both compounds, and no abnormal behavior was observed.

[3] = tested on: aortic root lesions of WD-fed Ldlr-/- mice; test: Aortic root atherosclerotic lesion analysis and in situ efferocytosis in WD-fed Ldlr-/- mice; format: in vivo, mouse; details: for total necrotic area: aortic root; for collagen content of the lesions / fibrous-cap thickness: picrosirius red; for collagen content of the lesions: percent of total lesion area; for fibrous-cap thickness: ratio of cap thickness to lesion size
Description: as §1
Total lesion area and necrotic area analysis were carried out on hematoxylin and eosin (H&E)-stained aortic root lesional cross sections as previously described. Briefly, total lesion area (from internal elastic lamina to the lumen) and acellular/anuclear areas (negative for hematoxylin-positive nuclei) per cross section were quantified by taking the average of 6 sections spaced 30 μm apart beginning at the base of the aortic root. Necrotic areas were defined as anuclear areas based on absence of hematoxylin staining. Collagen staining was performed using picrosirius red as per the manufacturer’s instructions (Polysciences Inc.), and fibrous cap thickness was quantified from 3 distinct regions of the plaque and scored per lesion size as previously described. For immunofluorescence staining, frozen sections were fixed in cold acetone for 10 minutes. After blocking for 1 hour in serum-free protein blocking buffer (DAKO, catalog X0909), sections were incubated overnight at 4°C with anti–phospho-hsp25 (CST, 1:200), anti-Mac2 (1:10,000), and smooth-muscle α actin (SMαA, 1:150) antibodies, rinsed with PBS three times, incubated with fluorescently-labeled secondary antibodies for 2 hours, and counterstained with DAPI. Three slides, each with 2 sections, were assessed for each mouse.
Experimentation was carried out as previously described. In brief, acetone-fixed aortic root sections were incubated with TUNEL (Roche) followed by staining with anti-Mac2 (1:10,000) to label macrophages. Apoptotic cells were then determined to be either macrophage-associated (colocalizing or juxtaposed with macrophages) or free (not associated with macrophages). Data were plotted as a ratio of associated-to free cells, which is a measure of efferocytosis.

hMK2 = hMK2 (Homo sapiens, UniProt P49137); test: hMK2 inhibition; format: biochemical
[4] = tested on: forskolin-induced G6pc mRNA; test: Forskolin-induced G6pc mRNA in primary mouse hepatocytes (RT-qPCR); format: cell-based; details: TBX-1 1 h, then TBX-1 and forskolin 4 h in serum-free media
Description: Primary mouse hepatocytes were isolated from 8- to 12-week-old mice as described previously and cultured in media containing Dulbecco’s Modified Eagle’s Medium (DMEM) (Corning, #10-013-CV), 10% (vol/vol) heat-inactivated FBS, and 1X penicillin-streptomycin. After overnight incubation, the cells were washed twice with PBS, treated with the indicated concentrations of TBX-1 for 1 h, followed by treatment with TBX-1 and forskolin for 4 h in FBS-free media.
Immunoblot and quantitative RT-PCR (RT-qPCR) assays were conducted as previously described. […]
Densitometric quantification of the data are shown in the bar graphs (n = 5-6 mice/group; mean ± SEM, p = 0.003, p = 0.001 and p = 0.02, respectively).
S2 Fig. Blood leukocyte and monocyte counts are similar between control and MK2 inhibitor–treated mice. […] Whole blood was analyzed for the number of total white blood cells (A) and monocytes (B) from a randomly selected subset of TBX-1–treated Ldlr-/- mice (n = 19 mice/group; mean ± SEM). […]
S3 Fig. Lesional collagen content is increased, whereas macrophage and smooth muscle cell numbers are similar between control and MK2 inhibitor–treated mice. […] Picrosirius red staining was quantified, and collagen content is expressed as percent of total lesion area (n = 7-10 mice/group; mean ± SEM, p = 0.009 and p = 0.03, respectively). […]

Chain of hMK2 (P49137 whole entry): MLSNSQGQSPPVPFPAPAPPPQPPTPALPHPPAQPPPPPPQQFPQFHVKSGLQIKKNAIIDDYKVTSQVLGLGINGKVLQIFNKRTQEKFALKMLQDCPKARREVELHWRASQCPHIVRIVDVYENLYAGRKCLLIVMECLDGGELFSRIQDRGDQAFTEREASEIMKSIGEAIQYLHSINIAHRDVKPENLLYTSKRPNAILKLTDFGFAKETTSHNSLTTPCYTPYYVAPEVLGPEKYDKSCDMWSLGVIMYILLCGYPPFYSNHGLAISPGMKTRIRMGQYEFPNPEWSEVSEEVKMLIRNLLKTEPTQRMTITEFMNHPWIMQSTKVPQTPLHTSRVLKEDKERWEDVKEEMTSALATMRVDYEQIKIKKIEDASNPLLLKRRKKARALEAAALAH

Compound	phospho-hsp25 levels in atherosclerotic lesions ([1]; aortic root sections, MFI within Mac2+ area)	phosphorylation of hsp25 in liver ([1]; liver extracts, immunoblot)	blood leukocyte (total white blood cell) count (WD-fed Ldlr-/- mice)	blood monocyte count (WD-fed Ldlr-/- mice)	LDL-cholesterol (fast protein liquid chromatography of plasma) (WD-fed Ldlr-/- mice)	VLDL-cholesterol (fast protein liquid chromatography of plasma) (WD-fed Ldlr-/- mice)	Clearance (Cl) [2] [mL/min/kg]	Cmax [2] [nM]	F (oral bioavailability) [2] [%]	Half-life [2] [h]	plasma half-life [2] [h]	total necrotic area [3]	collagen content of the lesions [3]	fibrous-cap thickness [3]	IC50 (hMK2) [nM]	forskolin-induced G6pc mRNA [4]
CN(C)[C@@H]1CCN(c2ccc3c(c2)Cn2cc(-c4ccc(C#N)cc4)cc2-c2nncn2-3)C1 [TBX-1]	significantly reduced	efficiently reduced	similar	similar	reduced	reduced	24.8	58	20.0	2.7	2.7	significantly reduced	significantly increased	significantly increased	67	inhibited forskolin-induced G6pc mRNA in a dose-dependent manner
CN(C)C[C@H]1CC(=O)N(c2ccc3c(c2)Cn2cc(-c4ccc(C#N)cc4)cc2-c2nccn2-3)C1 [TBX-2]	–	–	similar	similar	reduced	reduced	12.2	296	89.1	3.1	3.1	significantly reduced	significantly increased	significantly increased	19	–
